Assay results: the supplement of paper PMC10307832

Experiments:
Test in all cases: relative viability (nuclei count vs DMSO), 5 days (fraction); higher = more cells survive
[1] = compound: C[C@@]1(C(=O)Nc2ccc(F)nc2)CCCN1c1nc(Nc2cc(C3CC3)n[nH]2)c2cccn2n1 + COc1cccc2cc(-c3nc([C@H]4CC[C@H](C(=O)O)CC4)n4ncnc(N)c34)[nH]c12 [OSI-027] (partner 0.5 µM)
In short: (§1)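 Lung cancer cell lines in 1536-well plates were dosed by pin tool the day after seeding, either with one drug alone or with a fixed anchor-drug dose plus five library-drug doses (not always all listed) in √10 steps. After 5 days, cells were fixed and their nuclei stained in one step (final 0.05% Triton X-100, 1% formaldehyde, 1 ug/ml Hoechst), then counted on 4× images. Relative viability is the nuclei count in treated wells divided by that in vehicle wells. Values are medians of duplicate plates.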

[2] = compound: C[C@@]1(C(=O)Nc2ccc(F)nc2)CCCN1c1nc(Nc2cc(C3CC3)n[nH]2)c2cccn2n1 + O=C(CCCCCCC(=O)Nc1ccccc1)NO [Vorinostat] (partner 1 µM)
In short: as §1

[3] = compound: C[C@@]1(C(=O)Nc2ccc(F)nc2)CCCN1c1nc(Nc2cc(C3CC3)n[nH]2)c2cccn2n1 + C[C@]1(O)C[C@@H](c2nc(-c3ccc4ccc(-c5ccccc5)nc4c3)c3c(N)nccn32)C1 [Linsitinib] (partner 1 µM)
In short: as §1

[4] = compound: C[C@@]1(C(=O)Nc2ccc(F)nc2)CCCN1c1nc(Nc2cc(C3CC3)n[nH]2)c2cccn2n1 + Cc1nc(NC(=O)N2CCC[C@H]2C(N)=O)sc1-c1ccnc(C(C)(C)C(F)(F)F)c1 [Alpelisib] (partner 2 µM)
In short: as §1

Cell Line | relative viability ([1]; first compound 0.04 µM) | relative viability ([1]; first compound 0.1265 µM) | relative viability ([1]; first compound 0.4 µM) | relative viability ([1]; first compound 1.265 µM) | relative viability ([2]; first compound 0.04 µM) | relative viability ([2]; first compound 0.1265 µM) | relative viability ([2]; first compound 0.4 µM) | relative viability ([2]; first compound 1.265 µM) | relative viability ([3]; first compound 0.04 µM) | relative viability ([3]; first compound 0.1265 µM) | relative viability ([3]; first compound 0.4 µM) | relative viability ([3]; first compound 1.265 µM) | relative viability ([4]; first compound 0.04 µM) | relative viability ([4]; first compound 0.1265 µM) | relative viability ([4]; first compound 0.4 µM) | relative viability ([4]; first compound 1.265 µM)
NCI-H2342 | 0.636 | 0.561 | 0.448 | 0.479 | 0.803 | 0.708 | 0.696 | 0.582 |  |  |  |  |  |  |  | 
HCC-15 | 0.417 | 0.189 | 0.305 | 0.365 | 0.689 | 0.51 | 0.555 | 0.774 | 0.902 | 0.885 | 0.782 | 0.981 | 0.896 | 0.757 | 0.829 | 0.937
A-427 | 0.442 | 0.275 | 0.366 | 0.261 | 0.93 | 0.857 | 0.864 | 0.49 | 1.11 | 1.05 | 1.08 | 1.16 | 1.08 | 1.09 | 1.03 | 1.16
NCI-H2228 | 0.495 | 0.187 | 0.227 | 0.229 | 0.474 | 0.444 | 0.513 | 0.298 | 0.679 | 0.616 | 0.69 | 0.769 | 0.709 | 0.518 | 0.533 | 0.529
NCI-H1734 | 0.42 | 0.29 | 0.268 | 0.293 | 0.71 | 0.58 | 0.486 | 0.421 | 0.771 | 0.722 | 0.794 | 0.903 | 0.571 | 0.509 | 0.476 | 0.605
PC-14 | 0.869 | 0.284 | 0.563 | 0.279 | 0.792 | 0.102 | 0.45 | 0.204 | 1.09 | 0.814 | 0.825 | 1.01 | 0.89 | 0.828 | 0.833 | 0.941
NCI-H1915 | 0.612 | 0.628 | 0.592 | 0.604 | 0.54 | 0.519 | 0.475 | 0.492 | 1.08 | 1.08 | 1.08 | 1.16 | 1.09 | 1.08 | 1.04 | 1.06
NCI-H1666 | 0.611 | 0.488 | 0.568 | 0.426 | 0.965 | 0.729 | 0.77 | 0.82 | 0.89 | 0.87 | 0.753 | 0.831 | 0.825 | 0.798 | 0.742 | 0.585
HCC-366 | 0.861 | 0.585 | 0.462 | 0.437 | 0.395 | 0.315 | 0.2 | 0.0599 | 0.732 | 0.446 | 0.459 | 0.677 | 0.205 | 0.162 | 0.141 | 0.163
SK-MES-1 | 0.615 | 0.317 | 0.357 | 0.286 | 1.21 | 1.05 | 0.859 | 0.354 | 1.03 | 0.95 | 0.957 | 1.05 | 0.962 | 0.676 |  | 0.843
NCI-H1623 | 0.423 | 0.32 | 0.307 | 0.302 |  |  |  |  |  |  |  |  |  |  |  | 
Calu-6 |  |  |  |  |  |  |  |  | 0.91 | 0.895 | 0.833 | 0.859 | 1.05 | 0.932 | 0.888 | 0.455
NCI-H1650 | 0.546 | 0.49 | 0.442 | 0.374 | 0.568 | 0.445 | 0.494 | 0.311 |  |  |  |  |  |  |  | 
NCI-H2170 | 0.721 | 0.525 | 0.592 | 0.564 | 0.825 | 0.729 | 0.819 | 0.743 |  |  |  |  | 0.728 | 0.658 | 0.606 | 0.728
NCI-H1299 |  |  |  |  |  |  |  |  | 0.988 | 1.04 | 1 | 0.988 | 1.11 | 1.05 | 1.07 | 1.09
EBC-1 |  |  |  |  |  |  |  |  | 0.953 | 0.76 | 0.706 | 0.891 | 1.04 | 0.608 | 0.642 | 0.431
NCI-H1648 | 0.25 |  |  | 0.229 | 0.363 | 0.332 | 0.221 | 0.443 |  |  |  |  |  |  |  | 
NCI-H1792 | 0.303 | 0.828 | 0.199 | 0.212 |  |  |  |  | 0.654 | 0.596 | 0.503 | 0.713 | 0.618 | 0.538 | 0.58 | 0.686
ChaGo-K-1 | 0.402 | 0.252 | 0.317 | 0.291 | 0.713 | 0.636 | 0.626 | 0.671 |  |  |  |  |  |  |  | 
A549 |  |  |  |  |  |  |  |  | 0.681 | 0.571 | 0.401 | 0.79 | 0.638 | 0.392 | 0.333 | 0.35
NCI-H1563 | 0.721 | 0.599 | 0.609 | 0.631 |  |  |  |  | 1.11 | 1.07 | 1.06 | 1.16 | 0.943 | 0.891 | 0.913 | 0.85
NCI-H522 | 0.589 | 0.36 | 0.735 | 0.704 | 0.864 | 0.809 | 0.69 | 0.875 |  |  |  |  |  |  |  | 
IA-LM |  |  |  |  | 0.914 | 0.999 | 0.836 | 0.928 | 0.602 | 0.718 | 0.459 | 0.452 | 0.83 | 0.674 | 0.69 | 0.698
NCI-H1703 |  |  |  |  |  |  |  |  | 1.03 | 0.457 | 0.632 | 0.695 | 0.485 | 0.266 | 0.28 | 0.3
SW 900 | 0.549 | 0.518 | 0.464 | 0.551 | 0.557 | 0.426 | 0.432 | 0.468 |  |  |  |  |  |  |  | 
